# Source: patent US20150105252A1, “SUBSTITUTED PYRAZOLES AS HERBICIDES” (E I DU PONT DE NEMOURS AND COMPANY, priority 2013, published 2015)
# Columns and labels:
# [1] = test system: barnyardgrass; test: Test A preemergence; assay type: in vivo, Echinochloa crus-galli; details: preemergence
# Summary of the method: (§1)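 Injury readout: eye-scored versus untreated controls, 0 to 100. Exposure period: ~10 days, greenhouse. Application: soil-directed spray over sown seed (pre) or spray on seedlings 2–10 cm tall with one or two leaves (post), compound carried in non-phytotoxic solvent including surfactant.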
# [2] = test system: soybean; test: Test C preemergence; assay type: in vivo, Glycine max; details: for Plant response rating (scale of 0 to 100), Soybean: Preemergence, 250 g ai/ha
# Summary of the method: (§2)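 Scores of 0 (no effect) to 100 (complete control) were assigned by eye after 13–15 days, comparing treated pots with controls. Soil-applied (preemergence) treatments went onto seeds in loam and sand; foliar (postemergence) treatments onto 1- to 4-leaf plants in peat medium.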
# [3] = test system: johnsongrass; test: Test C preemergence; assay type: in vivo, Sorghum halepense; details: for Plant response rating (scale of 0 to 100), Johnsongrass: Preemergence, 250 g ai/ha
# Summary of the method: as §2
# [4] = test system: pigweed; test: Test C preemergence; assay type: in vivo, Amaranthus retroflexus; details: for Plant response rating (scale of 0 to 100), Pigweed: Preemergence, 250 g ai/ha
# Summary of the method: as §2
# [5] = test system: velvetleaf; test: Test C preemergence; assay type: in vivo, Abutilon theophrasti; details: for Plant response rating (scale of 0 to 100), Velvetleaf: Preemergence, 250 g ai/ha
# Summary of the method: as §2
# [6] = test system: morningglory; test: Test A postemergence; assay type: in vivo, Ipomoea spp.
# Summary of the method: as §1
# [7] = test system: corn; test: Test A preemergence; assay type: in vivo, Zea mays; details: preemergence
# Summary of the method: as §1
# [8] = test system: barnyardgrass; test: Test C preemergence; assay type: in vivo, Echinochloa crus-galli; details: for Plant response rating (scale of 0 to 100), Barnyardgrass: Preemergence, 250 g ai/ha
# Summary of the method: as §2
# [9] = test system: wheat; test: Test A postemergence; assay type: in vivo, Triticum aestivum
# Summary of the method: as §1
# [10] = test system: foxtail, giant; test: Test A preemergence; assay type: in vivo, Setaria faberii; details: preemergence
# Summary of the method: as §1
# [11] = test system: foxtail, giant; test: Test C preemergence; assay type: in vivo, Setaria faberii; details: for Plant response rating (scale of 0 to 100), Foxtail, Giant: Preemergence, 250 g ai/ha
# Summary of the method: as §2
# [12] = test system: crabgrass, large; test: Test C preemergence; assay type: in vivo, Digitaria sanguinalis; details: for Plant response rating (scale of 0 to 100), Crabgrass, Large: Preemergence, 250 g ai/ha
# Summary of the method: as §2
# [13] = test system: corn; test: Test C preemergence; assay type: in vivo, Zea mays; details: for Plant response rating (scale of 0 to 100), Corn: Preemergence, 250 g ai/ha
# Summary of the method: as §2
# [14] = test system: waterhemp; test: Test C preemergence; assay type: in vivo, Amaranthus rudis; details: for Plant response rating (scale of 0 to 100), Waterhemp: Preemergence, 250 g ai/ha
# Summary of the method: as §2
# [15] = test system: foxtail, giant; test: Test A postemergence; assay type: in vivo, Setaria faberii
# Summary of the method: as §1
# [16] = 125 g ai/ha, visual injury, 0 to 100 scale, approx. 10 days
# [17] = 500 g ai/ha, visual injury after approx. 10 days, 0 to 100 scale (0 no effect, 100 complete control)
# [18] = preemergence, 31 g ai/ha, visual rating, scale 0 to 100 (0 no effect, 100 complete control), 13 to 15 days
# [19] = preemergence, 62 g ai/ha, 13 to 15 days, scale 0 to 100, 0 = no effect, 100 = complete control
# [20] = preemergence, 125 g ai/ha, scale 0 to 100, 0 is no effect, 100 is complete control
# [21] = Postemergence, 500 g ai/ha, visual rating after approx. 10 days, 0 to 100 scale (0 no effect, 100 complete control)
# [22] = postemergence, 125 g ai/ha, about 10 days, visual rating on 0 to 100 scale (0 no effect, 100 complete control)
# [23] = preemergence, 31 g ai/ha, scale 0 to 100 (0 no effect, 100 complete control), 13 to 15 days
# [24] = preemergence, 62 g ai/ha, scale 0 to 100 (0 no effect, 100 complete control), 13 to 15 days
structure (smiles),measurement,setting,value
CCOc1cc(C(=O)NCC(F)(F)F)nn1Cc1ccnc(C(F)(F)F)c1 [Compound 104],Barnyardgrass plant response rating,[1]; [16],100
same,Barnyardgrass plant response rating,[1]; [17],100
same,"Plant response rating (scale of 0 to 100), Soybean",[2],98
same,Soybean plant response rating,[2]; [18],85
same,"Plant response rating, Soybean",[2]; [19],95
same,Soybean plant response rating,[2]; [20],98
same,"Plant response rating (scale of 0 to 100), Johnsongrass",[3],100
same,Johnsongrass plant response rating,[3]; [18],90
same,"Plant response rating, Johnsongrass",[3]; [19],100
same,Johnsongrass plant response rating,[3]; [20],100
same,"Plant response rating (scale of 0 to 100), Pigweed",[4],100
same,Pigweed plant response rating,[4]; [18],100
same,"Plant response rating, Pigweed",[4]; [19],100
same,Pigweed plant response rating,[4]; [20],100
same,"Plant response rating (scale of 0 to 100), Velvetleaf",[5],100
same,Velvetleaf plant response rating,[5]; [18],100
same,"Plant response rating, Velvetleaf",[5]; [19],100
same,Velvetleaf plant response rating,[5]; [20],100
same,Morningglory plant response rating,[6]; [21],100
same,Morningglory plant response rating,[6]; [22],100
same,Corn plant response rating,[7]; [16],60
same,Corn plant response rating,[7]; [17],80
same,"Plant response rating (scale of 0 to 100), Barnyardgrass",[8],100
same,Barnyardgrass plant response rating,[8]; [23],100
same,"Plant response rating, Barnyardgrass",[8]; [19],100
same,Barnyardgrass plant response rating,[8]; [20],100
same,Wheat plant response rating,[9]; [21],70
same,Wheat plant response rating,[9]; [22],70
same,"Foxtail, Giant plant response rating",[10]; [16],100
same,"Foxtail, Giant plant response rating",[10]; [17],100
same,"Plant response rating (scale of 0 to 100), Foxtail, Giant",[11],100
same,"Foxtail, Giant plant response rating",[11]; [18],100
same,"Plant response rating, Foxtail, Giant",[11]; [19],100
same,"Foxtail, Giant plant response rating",[11]; [20],100
same,"Plant response rating (scale of 0 to 100), Crabgrass, Large",[12],100
same,"Crabgrass, Large plant response rating",[12]; [18],100
same,"Plant response rating, Crabgrass, Large",[12]; [19],100
same,"Crabgrass, Large plant response rating",[12]; [20],100
same,"Plant response rating (scale of 0 to 100), Corn",[13],98
same,Corn plant response rating,[13]; [18],40
same,"Plant response rating, Corn",[13]; [19],65
same,Corn plant response rating,[13]; [20],98
same,"Plant response rating (scale of 0 to 100), Waterhemp",[14],100
same,Waterhemp plant response rating,[14]; [18],100
same,"Plant response rating, Waterhemp",[14]; [19],100
same,Waterhemp plant response rating,[14]; [20],100
same,"Foxtail, Giant plant response rating",[15]; [21],90
same,"Foxtail, Giant plant response rating",[15]; [22],90
CCCc1cc(C(=O)NCC(F)(F)F)nn1Cc1ccnc(C(F)(F)F)c1 [Compound 105],Barnyardgrass plant response rating,[1]; [16],100
same,Barnyardgrass plant response rating,[1]; [17],100
same,"Plant response rating (scale of 0 to 100), Soybean",[2],95
same,Soybean plant response rating,[2]; [18],70
same,Soybean plant response rating,[2]; [24],70
same,Soybean plant response rating,[2]; [20],95
same,"Plant response rating (scale of 0 to 100), Johnsongrass",[3],100
same,Johnsongrass plant response rating,[3]; [18],80
same,Johnsongrass plant response rating,[3]; [24],95
same,Johnsongrass plant response rating,[3]; [20],100
same,"Plant response rating (scale of 0 to 100), Pigweed",[4],100
same,Pigweed plant response rating,[4]; [18],100
same,Pigweed plant response rating,[4]; [24],100
same,Pigweed plant response rating,[4]; [20],100
same,"Plant response rating (scale of 0 to 100), Velvetleaf",[5],100
same,Velvetleaf plant response rating,[5]; [18],98
same,Velvetleaf plant response rating,[5]; [24],100
same,Velvetleaf plant response rating,[5]; [20],100
same,Morningglory plant response rating,[6]; [21],100
same,Morningglory plant response rating,[6]; [22],100
same,Corn plant response rating,[7]; [16],60
same,Corn plant response rating,[7]; [17],70
same,"Plant response rating (scale of 0 to 100), Barnyardgrass",[8],100
same,Barnyardgrass plant response rating,[8]; [23],98
same,Barnyardgrass plant response rating,[8]; [24],100
same,Barnyardgrass plant response rating,[8]; [20],100
same,Wheat plant response rating,[9]; [21],100
same,Wheat plant response rating,[9]; [22],100
same,"Foxtail, Giant plant response rating",[10]; [16],100
same,"Foxtail, Giant plant response rating",[10]; [17],100
same,"Plant response rating (scale of 0 to 100), Foxtail, Giant",[11],100
same,"Foxtail, Giant plant response rating",[11]; [18],100
same,"Foxtail, Giant plant response rating",[11]; [24],100
same,"Foxtail, Giant plant response rating",[11]; [20],100
same,"Plant response rating (scale of 0 to 100), Crabgrass, Large",[12],100
same,"Crabgrass, Large plant response rating",[12]; [18],100
same,"Crabgrass, Large plant response rating",[12]; [24],100
same,"Crabgrass, Large plant response rating",[12]; [20],100
same,"Plant response rating (scale of 0 to 100), Corn",[13],95
same,Corn plant response rating,[13]; [18],65
same,Corn plant response rating,[13]; [20],80
same,"Plant response rating (scale of 0 to 100), Waterhemp",[14],100
same,Waterhemp plant response rating,[14]; [18],100
same,Waterhemp plant response rating,[14]; [24],100
same,Waterhemp plant response rating,[14]; [20],100
same,"Foxtail, Giant plant response rating",[15]; [21],100
same,"Foxtail, Giant plant response rating",[15]; [22],100
